Measurements from patent US20080009418A1, “Selective Inhibitors” (Alchemia LTD., priority 2004, published 2008).

How the values were obtained:
Human μ-opioid (MOP) = molecular target: T1, Human μ-opioid (MOP) (Homo sapiens, UniProt P35372); assay: Radioligand binding, human μ-opioid (MOP) membranes, FlashPlate, [3H]-Naloxone; conditions: compound at 10 μM; human μ-opioid (MOP) membranes
T1 construct: purchased Perkin Elmer Biosignal
Summary of the method: (§1)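 Cloned human receptor membranes were coated onto FlashPlate wells and incubated with radioligand and compound (added from a 0.5 mM DMSO daughter plate) for 1 hour at room temperature in the dark. Scintillation counting gave percent inhibition, with DMSO defining total and reference ligand defining non-specific binding.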

Human Melanocortin (MC3) = molecular target: T2, Human Melanocortin (MC3) (Homo sapiens, UniProt P41968); assay: Radioligand binding, human melanocortin MC3 membranes, FlashPlate, [125I]-NDP-αMSH; conditions: compound at 10 μM; human melanocortin MC3 membranes
T2 construct: purchased Perkin Elmer Biosignal
T2 sequence (P41968 whole entry): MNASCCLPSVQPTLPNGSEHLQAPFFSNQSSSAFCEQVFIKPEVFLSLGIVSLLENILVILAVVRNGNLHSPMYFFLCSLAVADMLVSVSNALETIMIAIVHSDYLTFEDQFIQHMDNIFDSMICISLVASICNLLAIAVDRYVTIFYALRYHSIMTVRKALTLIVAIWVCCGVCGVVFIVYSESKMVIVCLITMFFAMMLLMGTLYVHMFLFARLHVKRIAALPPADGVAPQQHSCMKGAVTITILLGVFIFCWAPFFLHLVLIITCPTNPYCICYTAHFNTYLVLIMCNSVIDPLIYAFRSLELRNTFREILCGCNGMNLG
Summary of the method: as §1

[1] = molecular target: T3, Human melanin-concentrating hormone (MCH1) (Homo sapiens, UniProt Q99705); assay: Radioligand binding, human melanin-concentrating hormone MCH1 membranes, FlashPlate, [125I]-S36057; conditions: compound at 10 μM; human MCH1 membranes
T3 construct: purchased Perkin Elmer Biosignal
T3 sequence (Q99705 whole entry): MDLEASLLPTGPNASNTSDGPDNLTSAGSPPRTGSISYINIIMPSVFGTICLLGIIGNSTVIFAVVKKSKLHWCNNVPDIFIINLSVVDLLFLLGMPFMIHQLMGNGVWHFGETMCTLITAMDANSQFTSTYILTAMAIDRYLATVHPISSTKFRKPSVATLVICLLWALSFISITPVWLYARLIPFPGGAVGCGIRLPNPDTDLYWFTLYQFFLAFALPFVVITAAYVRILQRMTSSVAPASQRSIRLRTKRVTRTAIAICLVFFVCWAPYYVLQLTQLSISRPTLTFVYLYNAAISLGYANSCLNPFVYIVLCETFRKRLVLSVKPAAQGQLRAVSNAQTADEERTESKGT
Summary of the method: as §1

Human δ-opioid (DOP) = molecular target: T4, Human δ-opioid (DOP) (Homo sapiens, UniProt P41143); assay: Radioligand binding, human δ-opioid (DOP) membranes, FlashPlate, [3H]-Bremazocine; conditions: compound at 10 μM; human δ-opioid (DOP) membranes
T4 construct: purchased Perkin Elmer Biosignal
T4 sequence (P41143 whole entry): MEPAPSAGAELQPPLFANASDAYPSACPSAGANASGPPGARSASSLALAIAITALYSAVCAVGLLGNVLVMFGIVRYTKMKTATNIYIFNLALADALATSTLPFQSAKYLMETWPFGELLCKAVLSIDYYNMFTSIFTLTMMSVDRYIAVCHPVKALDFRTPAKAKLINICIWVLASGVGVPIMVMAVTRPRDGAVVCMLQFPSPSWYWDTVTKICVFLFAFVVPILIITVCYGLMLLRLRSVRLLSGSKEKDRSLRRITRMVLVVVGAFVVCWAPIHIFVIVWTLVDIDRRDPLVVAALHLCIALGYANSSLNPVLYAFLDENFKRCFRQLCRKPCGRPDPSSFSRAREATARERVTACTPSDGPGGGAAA
Summary of the method: as §1

Mouse urotensin (mUR2) = molecular target: T5, Mouse urotensin (mUR2) (Mus musculus, UniProt Q8VIH9); assay: Radioligand binding, mouse urotensin mUR2 membranes, FlashPlate, [125I]-Urotensin II; conditions: compound at 10 μM; mouse urotensin mUR2 membranes
T5 construct: purchased Perkin Elmer Biosignal
T5 sequence (Q8VIH9 1-385): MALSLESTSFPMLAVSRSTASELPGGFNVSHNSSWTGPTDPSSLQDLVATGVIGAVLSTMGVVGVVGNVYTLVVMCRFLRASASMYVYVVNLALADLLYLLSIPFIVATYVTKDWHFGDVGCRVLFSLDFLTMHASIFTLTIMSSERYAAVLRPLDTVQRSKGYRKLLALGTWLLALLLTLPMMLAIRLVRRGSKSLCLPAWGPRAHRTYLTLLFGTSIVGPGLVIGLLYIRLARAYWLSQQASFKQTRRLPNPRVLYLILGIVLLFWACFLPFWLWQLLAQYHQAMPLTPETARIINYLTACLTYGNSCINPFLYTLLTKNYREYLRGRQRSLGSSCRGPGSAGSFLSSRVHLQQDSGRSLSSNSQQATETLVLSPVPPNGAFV
Summary of the method: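 Cloned mouse urotensin (mUR2) receptor membranes from Perkin Elmer Biosignal were immobilized in FlashPlate microplates using a proprietary coating. Each well got 19.5 μl buffer, then 0.5 μl of DMSO, reference ligand, or compound. Adding 5 μl of [125I]-Urotensin II, diluted to 5× final concentration in binding buffer, started binding. Plates were sealed with TopSeal-A and incubated 1 hour at room temperature in the dark. Wells were counted for 30 seconds each on a TopCount after a 60-second delay, and percentage inhibition was calculated.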

Human κ-Opioid (KOP) = molecular target: T6, Human κ-Opioid (KOP) (Homo sapiens, UniProt P41145); assay: Radioligand binding, human κ-opioid (KOP) membranes, filtration, [3H]-Diprenorphine; conditions: compound at 10 μM; human κ-opioid (KOP) membranes
T6 construct: purchased Perkin Elmer Biosignal
T6 sequence (P41145 whole entry): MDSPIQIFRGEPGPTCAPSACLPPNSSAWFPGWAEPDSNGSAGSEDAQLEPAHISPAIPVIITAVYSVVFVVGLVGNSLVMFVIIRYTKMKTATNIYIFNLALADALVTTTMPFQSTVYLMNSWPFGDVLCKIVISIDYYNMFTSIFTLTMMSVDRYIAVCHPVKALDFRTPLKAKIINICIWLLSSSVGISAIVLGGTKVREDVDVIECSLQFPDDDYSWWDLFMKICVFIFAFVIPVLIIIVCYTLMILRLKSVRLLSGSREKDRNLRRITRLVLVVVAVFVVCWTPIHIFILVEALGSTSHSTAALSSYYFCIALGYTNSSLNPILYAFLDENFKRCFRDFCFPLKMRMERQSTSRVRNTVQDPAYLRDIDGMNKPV
Summary of the method: (§2)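 Membranes from cloned human receptors were incubated with compound and radioligand for 1 hour at room temperature. Bound ligand was collected on 0.3% PEI-soaked filters, washed with cold 50 mM Tris-HCl pH 7.4, and counted by scintillation. Percent inhibition was computed against DMSO totals and reference-ligand nonspecific wells.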

Human opioid (ORL1) = molecular target: T7, Human opioid (ORL1) (Homo sapiens, UniProt P41146); assay: Radioligand binding, human opioid ORL1 membranes, FlashPlate, [125I]-Nociceptin; conditions: compound at 10 μM; human ORL1 membranes
T7 construct: purchased Perkin Elmer Biosignal
T7 sequence (P41146 whole entry): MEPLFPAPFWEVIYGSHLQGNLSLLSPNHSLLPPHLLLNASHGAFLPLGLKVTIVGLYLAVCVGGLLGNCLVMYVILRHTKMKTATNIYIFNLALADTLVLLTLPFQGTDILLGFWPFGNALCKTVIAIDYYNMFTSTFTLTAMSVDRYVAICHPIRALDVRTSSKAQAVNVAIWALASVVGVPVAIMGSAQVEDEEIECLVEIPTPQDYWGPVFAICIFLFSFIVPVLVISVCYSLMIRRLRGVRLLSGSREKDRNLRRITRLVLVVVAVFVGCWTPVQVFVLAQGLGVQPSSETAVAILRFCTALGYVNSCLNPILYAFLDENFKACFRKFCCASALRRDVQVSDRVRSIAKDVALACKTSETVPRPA
Summary of the method: as §1

Human Melanocortin (MC4) = molecular target: T8, Human Melanocortin (MC4) (Homo sapiens, UniProt P32245); assay: Radioligand binding, human melanocortin MC4 membranes, FlashPlate, [125I]-NDP-αMSH; conditions: compound at 10 μM; human melanocortin MC4 membranes
T8 construct: purchased Perkin Elmer Biosignal
T8 sequence (P32245 whole entry): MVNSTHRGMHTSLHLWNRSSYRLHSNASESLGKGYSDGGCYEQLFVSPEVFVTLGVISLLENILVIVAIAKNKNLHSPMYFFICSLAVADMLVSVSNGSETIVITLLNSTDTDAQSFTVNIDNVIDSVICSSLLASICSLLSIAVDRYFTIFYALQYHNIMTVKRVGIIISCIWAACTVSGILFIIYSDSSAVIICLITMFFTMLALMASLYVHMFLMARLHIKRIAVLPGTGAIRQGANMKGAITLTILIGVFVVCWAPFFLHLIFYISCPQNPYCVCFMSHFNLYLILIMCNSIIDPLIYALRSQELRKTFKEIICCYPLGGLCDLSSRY
Summary of the method: as §1

Human melanocortin (MC5) = molecular target: T9, Human melanocortin (MC5) (Homo sapiens, UniProt P33032); assay: Radioligand binding, human melanocortin MC5 membranes, FlashPlate, [125I]-NDP-αMSH; conditions: compound at 10 μM; human melanocortin MC5 membranes
T9 construct: purchased Perkin Elmer Biosignal
T9 sequence (P33032 whole entry): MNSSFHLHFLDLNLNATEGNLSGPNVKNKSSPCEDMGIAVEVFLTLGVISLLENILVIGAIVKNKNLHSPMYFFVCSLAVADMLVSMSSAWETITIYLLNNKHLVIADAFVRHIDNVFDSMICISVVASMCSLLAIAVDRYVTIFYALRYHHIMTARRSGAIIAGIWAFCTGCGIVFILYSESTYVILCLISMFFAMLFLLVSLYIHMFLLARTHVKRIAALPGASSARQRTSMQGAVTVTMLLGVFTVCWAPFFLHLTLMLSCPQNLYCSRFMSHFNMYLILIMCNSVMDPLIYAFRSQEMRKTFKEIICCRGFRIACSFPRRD
Summary of the method: as §1

[2] = molecular target: T10, Human neuropeptide Y (NPY-Y1) (Homo sapiens, UniProt P25929); assay: Radioligand binding, human neuropeptide Y NPY-Y1 membranes, FlashPlate, [125I]-PYY; conditions: compound at 10 μM; human NPY-Y1 membranes
T10 construct: purchased Perkin Elmer Biosignal
T10 sequence (P25929 1-384): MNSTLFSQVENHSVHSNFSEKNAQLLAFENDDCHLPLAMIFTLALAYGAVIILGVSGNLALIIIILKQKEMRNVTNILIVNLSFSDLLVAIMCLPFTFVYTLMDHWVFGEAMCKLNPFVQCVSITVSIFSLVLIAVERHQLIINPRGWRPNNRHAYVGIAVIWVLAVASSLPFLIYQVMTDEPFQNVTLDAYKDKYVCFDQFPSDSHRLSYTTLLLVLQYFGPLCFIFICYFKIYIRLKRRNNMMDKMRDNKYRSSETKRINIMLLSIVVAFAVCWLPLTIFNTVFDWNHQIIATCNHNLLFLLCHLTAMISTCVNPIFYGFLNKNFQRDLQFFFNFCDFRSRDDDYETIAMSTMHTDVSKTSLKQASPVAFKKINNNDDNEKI
Summary of the method: as §1

Human neurokinin (NK1) = molecular target: T11, Human neurokinin (NK1) (Homo sapiens, UniProt P25103); assay: Radioligand binding, human neurokinin NK1 membranes, filtration, [125I]-Substance P; conditions: compound at 10 μM; human neurokinin NK1 membranes
T11 construct: purchased Perkin Elmer Biosignal
T11 sequence (P25103 whole entry): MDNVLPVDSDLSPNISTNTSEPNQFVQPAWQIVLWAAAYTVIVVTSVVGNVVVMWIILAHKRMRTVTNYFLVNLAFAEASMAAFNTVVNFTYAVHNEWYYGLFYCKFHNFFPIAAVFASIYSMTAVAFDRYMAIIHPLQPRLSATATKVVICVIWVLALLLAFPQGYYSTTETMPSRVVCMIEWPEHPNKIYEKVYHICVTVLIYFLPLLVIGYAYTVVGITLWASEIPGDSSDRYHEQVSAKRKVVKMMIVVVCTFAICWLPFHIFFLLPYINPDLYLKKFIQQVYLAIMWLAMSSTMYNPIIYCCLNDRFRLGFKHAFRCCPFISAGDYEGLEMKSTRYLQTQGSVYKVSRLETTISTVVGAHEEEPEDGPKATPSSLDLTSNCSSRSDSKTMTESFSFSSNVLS
Summary of the method: as §2

T1 sequence (P35372 whole entry): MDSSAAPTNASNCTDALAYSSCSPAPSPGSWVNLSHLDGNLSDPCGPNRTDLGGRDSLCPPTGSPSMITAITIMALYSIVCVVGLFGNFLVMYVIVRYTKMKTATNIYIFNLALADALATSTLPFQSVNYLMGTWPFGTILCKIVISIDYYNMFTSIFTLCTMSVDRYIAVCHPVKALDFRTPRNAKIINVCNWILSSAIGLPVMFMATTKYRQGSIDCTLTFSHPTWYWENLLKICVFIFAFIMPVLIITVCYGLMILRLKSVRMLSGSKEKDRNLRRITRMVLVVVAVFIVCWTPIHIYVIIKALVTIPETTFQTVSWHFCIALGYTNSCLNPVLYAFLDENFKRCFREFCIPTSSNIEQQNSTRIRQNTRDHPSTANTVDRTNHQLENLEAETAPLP

COC[C@H]1OC(OCc2ccc3ccccc3c2)[C@H](NC(=O)CNC(=N)N)[C@@H](OCc2ccc(-c3ccccc3)cc2)[C@@H]1O (stereo partly drawn) [compound 15]
A7 radioligand binding inhibition (Human μ-opioid (MOP)): + (“+” indicates greater than 50% inhibition at 10 μM)
A3 radioligand binding inhibition (Human Melanocortin (MC3)): − (“−” indicates less than 50% inhibition at 10 μM)
A6 radioligand binding inhibition [1]: + (“+” indicates greater than 50% inhibition at 10 μM)
A1 radioligand binding inhibition (Human δ-opioid (DOP)): − (“−” indicates less than 50% inhibition at 10 μM)
A11 radioligand binding inhibition (Mouse urotensin (mUR2)): − (“−” indicates less than 50% inhibition at 10 μM)
A2 radioligand binding inhibition (Human κ-Opioid (KOP)): − (“−” indicates less than 50% inhibition at 10 μM)
A10 radioligand binding inhibition (Human opioid (ORL1)): − (“−” indicates less than 50% inhibition at 10 μM)
A4 radioligand binding inhibition (Human Melanocortin (MC4)): + (“+” indicates greater than 50% inhibition at 10 μM)
A5 radioligand binding inhibition (Human melanocortin (MC5)): + (“+” indicates greater than 50% inhibition at 10 μM)
A9 radioligand binding inhibition [2]: − (“−” indicates less than 50% inhibition at 10 μM)
A8 radioligand binding inhibition (Human neurokinin (NK1)): − (“−” indicates less than 50% inhibition at 10 μM)

COC[C@H]1OC(OCc2ccc3ccccc3c2)[C@H](NC(=O)CCNC(=N)N)[C@@H](OCc2ccc(-c3ccccc3)cc2)[C@@H]1O (stereo partly drawn) [compound 16]
A7 radioligand binding inhibition (Human μ-opioid (MOP)): + (“+” indicates greater than 50% inhibition at 10 μM)
A3 radioligand binding inhibition (Human Melanocortin (MC3)): + (“+” indicates greater than 50% inhibition at 10 μM)
A6 radioligand binding inhibition [1]: + (“+” indicates greater than 50% inhibition at 10 μM)
A1 radioligand binding inhibition (Human δ-opioid (DOP)): + (“+” indicates greater than 50% inhibition at 10 μM)
A11 radioligand binding inhibition (Mouse urotensin (mUR2)): − (“−” indicates less than 50% inhibition at 10 μM)
A2 radioligand binding inhibition (Human κ-Opioid (KOP)): + (“+” indicates greater than 50% inhibition at 10 μM)
A10 radioligand binding inhibition (Human opioid (ORL1)): − (“−” indicates less than 50% inhibition at 10 μM)
A4 radioligand binding inhibition (Human Melanocortin (MC4)): + (“+” indicates greater than 50% inhibition at 10 μM)
A5 radioligand binding inhibition (Human melanocortin (MC5)): + (“+” indicates greater than 50% inhibition at 10 μM)
A9 radioligand binding inhibition [2]: − (“−” indicates less than 50% inhibition at 10 μM)
A8 radioligand binding inhibition (Human neurokinin (NK1)): + (“+” indicates greater than 50% inhibition at 10 μM)

COC[C@H]1OC(OCc2ccc3ccccc3c2)[C@H](NC(=O)CNC(=N)N)[C@@H](OCc2ccc3ccccc3c2)[C@@H]1O (stereo partly drawn) [compound 17]
A7 radioligand binding inhibition (Human μ-opioid (MOP)): + (“+” indicates greater than 50% inhibition at 10 μM)
A3 radioligand binding inhibition (Human Melanocortin (MC3)): − (“−” indicates less than 50% inhibition at 10 μM)
A6 radioligand binding inhibition [1]: + (“+” indicates greater than 50% inhibition at 10 μM)
A1 radioligand binding inhibition (Human δ-opioid (DOP)): − (“−” indicates less than 50% inhibition at 10 μM)
A11 radioligand binding inhibition (Mouse urotensin (mUR2)): − (“−” indicates less than 50% inhibition at 10 μM)
A2 radioligand binding inhibition (Human κ-Opioid (KOP)): − (“−” indicates less than 50% inhibition at 10 μM)
A10 radioligand binding inhibition (Human opioid (ORL1)): − (“−” indicates less than 50% inhibition at 10 μM)
A4 radioligand binding inhibition (Human Melanocortin (MC4)): + (“+” indicates greater than 50% inhibition at 10 μM)
A5 radioligand binding inhibition (Human melanocortin (MC5)): + (“+” indicates greater than 50% inhibition at 10 μM)
A9 radioligand binding inhibition [2]: − (“−” indicates less than 50% inhibition at 10 μM)
A8 radioligand binding inhibition (Human neurokinin (NK1)): + (“+” indicates greater than 50% inhibition at 10 μM)

COC[C@H]1OC(OCc2ccc3ccccc3c2)[C@H](NC(=O)CCNC(=N)N)[C@@H](OCc2ccc3ccccc3c2)[C@@H]1O (stereo partly drawn) [compound 18]
A7 radioligand binding inhibition (Human μ-opioid (MOP)): + (“+” indicates greater than 50% inhibition at 10 μM)
A3 radioligand binding inhibition (Human Melanocortin (MC3)): − (“−” indicates less than 50% inhibition at 10 μM)
A6 radioligand binding inhibition [1]: + (“+” indicates greater than 50% inhibition at 10 μM)
A1 radioligand binding inhibition (Human δ-opioid (DOP)): − (“−” indicates less than 50% inhibition at 10 μM)
A11 radioligand binding inhibition (Mouse urotensin (mUR2)): − (“−” indicates less than 50% inhibition at 10 μM)
A2 radioligand binding inhibition (Human κ-Opioid (KOP)): − (“−” indicates less than 50% inhibition at 10 μM)
A10 radioligand binding inhibition (Human opioid (ORL1)): − (“−” indicates less than 50% inhibition at 10 μM)
A4 radioligand binding inhibition (Human Melanocortin (MC4)): − (“−” indicates less than 50% inhibition at 10 μM)
A5 radioligand binding inhibition (Human melanocortin (MC5)): + (“+” indicates greater than 50% inhibition at 10 μM)
A9 radioligand binding inhibition [2]: − (“−” indicates less than 50% inhibition at 10 μM)
A8 radioligand binding inhibition (Human neurokinin (NK1)): + (“+” indicates greater than 50% inhibition at 10 μM)

COC[C@H]1OC(OCc2ccc3ccccc3c2)[C@H](NC(=O)CCNC(=N)N)[C@@H](OCc2ccccc2)[C@@H]1O (stereo partly drawn) [compound 19]
A7 radioligand binding inhibition (Human μ-opioid (MOP)): + (“+” indicates greater than 50% inhibition at 10 μM)
A3 radioligand binding inhibition (Human Melanocortin (MC3)): − (“−” indicates less than 50% inhibition at 10 μM)
A6 radioligand binding inhibition [1]: − (“−” indicates less than 50% inhibition at 10 μM)
A1 radioligand binding inhibition (Human δ-opioid (DOP)): − (“−” indicates less than 50% inhibition at 10 μM)
A11 radioligand binding inhibition (Mouse urotensin (mUR2)): − (“−” indicates less than 50% inhibition at 10 μM)
A2 radioligand binding inhibition (Human κ-Opioid (KOP)): − (“−” indicates less than 50% inhibition at 10 μM)
A10 radioligand binding inhibition (Human opioid (ORL1)): − (“−” indicates less than 50% inhibition at 10 μM)
A4 radioligand binding inhibition (Human Melanocortin (MC4)): − (“−” indicates less than 50% inhibition at 10 μM)
A5 radioligand binding inhibition (Human melanocortin (MC5)): − (“−” indicates less than 50% inhibition at 10 μM)
A9 radioligand binding inhibition [2]: − (“−” indicates less than 50% inhibition at 10 μM)
A8 radioligand binding inhibition (Human neurokinin (NK1)): + (“+” indicates greater than 50% inhibition at 10 μM)

COC[C@H]1OC(OCc2ccc3ccccc3c2)[C@H](NC(=O)CCCN)[C@@H](OCc2ccccc2)[C@@H]1O (stereo partly drawn) [compound 20]
A7 radioligand binding inhibition (Human μ-opioid (MOP)): − (“−” indicates less than 50% inhibition at 10 μM)
A3 radioligand binding inhibition (Human Melanocortin (MC3)): − (“−” indicates less than 50% inhibition at 10 μM)
A6 radioligand binding inhibition [1]: − (“−” indicates less than 50% inhibition at 10 μM)
A1 radioligand binding inhibition (Human δ-opioid (DOP)): − (“−” indicates less than 50% inhibition at 10 μM)
A11 radioligand binding inhibition (Mouse urotensin (mUR2)): − (“−” indicates less than 50% inhibition at 10 μM)
A2 radioligand binding inhibition (Human κ-Opioid (KOP)): − (“−” indicates less than 50% inhibition at 10 μM)
A10 radioligand binding inhibition (Human opioid (ORL1)): − (“−” indicates less than 50% inhibition at 10 μM)
A4 radioligand binding inhibition (Human Melanocortin (MC4)): − (“−” indicates less than 50% inhibition at 10 μM)
A5 radioligand binding inhibition (Human melanocortin (MC5)): − (“−” indicates less than 50% inhibition at 10 μM)
A9 radioligand binding inhibition [2]: − (“−” indicates less than 50% inhibition at 10 μM)
A8 radioligand binding inhibition (Human neurokinin (NK1)): + (“+” indicates greater than 50% inhibition at 10 μM)
